Assay results reported in patent US10723741B1, “DNA polymerase IIIC inhibitors and use thereof” (Acurx Pharmaceuticals, LLC, priority 2018, dated 2020).
Converted amounts (≈) assume the structure as drawn. Where a name gives a salt, the structure may show the parent alone. Read-outs that look alike come from different tables or passages of the source.

What was measured:
Assay type in all cases: cell-based
[1] = system: Bacillus subtilis ATCC 6633; assay: Broth microdilution MIC, B. subtilis ATCC 6633; settings: read-out: MIC B. subtilis ATCC 6633
Outline: (§1)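 Broth microdilution in strain-specific test medium with ~5.0×10^5 cfu/ml inoculum, 1% DMSO and two-fold compound dilutions from 64 to 0.0625 μg/ml. Plates were held 20 hours at 37° C in ambient air. S. pneumoniae colonies were grown beforehand on blood agar in 5% CO2.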

[2] = system: Staphylococcus aureus ATCC 29213 (MSSA); assay: Broth microdilution MIC, S. aureus ATCC 29213 (MSSA); settings: read-out: MIC S. aureus ATCC 29213 (MSSA)
Outline: as §1

[3] = system: Escherichia coli ATCC 25922; assay: Broth microdilution MIC, E. coli ATCC 25922 (MHIIB w & w/o 4 mM EDTA); settings: for MIC: Escherichia coli, read-out: MIC E. coli ATCC 25922; for MIC E. coli ATCC 25922 + 4 mM EDTA: with 4 mM EDTA
Outline: as §1

[4] = system: Enterococcus faecium ATCC 700221 (VRE); assay: Broth microdilution MIC, E. faecium ATCC 700221 (VRE); settings: Enterococcus faecium, read-out: MIC E. faecium ATCC 700221 (VRE)
Outline: as §1

[5] = system: Enterococcus faecalis ATCC 29212; assay: Broth microdilution MIC, E. faecalis ATCC 29212; settings: read-out: MIC E. faecalis ATCC 29212
Outline: as §1

[6] = system: Streptococcus pneumoniae ATCC 49619; assay: Broth microdilution MIC, S. pneumoniae ATCC 49619; settings: read-out: MIC S. pneumoniae ATCC 49619
Outline: as §1

[7] = system: Staphylococcus aureus NRS384 (MRSA); assay: Broth microdilution MIC, S. aureus NRS384 (MRSA); set-up: MIC NRS 384 (MRSA): unit not given here; settings: for MIC: Staphylococcus aureus, read-out: MIC NRS 384 (MRSA)
Outline: as §1

[8] = ATCC6633, broth microdilution, 37° C., 20 hours
[9] = broth microdilution, 37° C., 20 hours
[10] = ATCC25922, without EDTA, broth microdilution, 37° C., 20 hours
[11] = ATCC29212, broth microdilution, 37° C., 20 hours
[12] = ATCC49619, broth microdilution, 37° C., 20 hours

| SMILES | MIC [1, 8] | MIC [2, 9] | MIC [3, 10] | MIC E. coli ATCC 25922 + 4 mM EDTA [3, 9] | MIC [4, 9] | MIC [5, 11] | MIC [6, 12] | MIC [7, 9] | MIC ([7]; S. aureus NRS 384, broth microdilution, 37° C., 20 hours) | MIC NRS 384 (MRSA) [7, 9] | MIC ([1]; ATCC6633, 20 h) | MIC ([2]; 20 h) | MIC ([3]; ATCC25922, 20 h) | MIC ([4]; 20 h) | MIC ([5]; ATCC29212, 20 h) | MIC ([6]; ATCC49619, 20 h) | MIC ([7]; 20 h) |
| --- | --- | --- | --- | --- | --- | --- | --- | --- | --- | --- | --- | --- | --- | --- | --- | --- | --- |
| O=c1[nH]c(NCc2ccc(F)c(F)c2)nc2cnn(CC3CCO3)c12 (stereo not shown) [Compound 125, 5-((3,4-Difluorobenzyl)amino)-1-(oxetan-2-ylmethyl)-1H-pyrazolo[4,3-d]pyrimidin-7(6H)-one] | 32 µg/mL (≈ 92.1 µM) | 32 µg/mL (≈ 92.1 µM) | > 64 µg/mL | >64 µg/mL | 32 µg/mL (≈ 92.1 µM) | 32 µg/mL (≈ 92.1 µM) | 8 µg/mL (≈ 23 µM) | 32 µg/mL (≈ 92.1 µM) |  |  |  |  |  |  |  |  |  |
| COCCn1nc(F)c2nc(NCc3ccc(F)c(F)c3)[nH]c(=O)c21 [Compound 308, 5-((3,4-Difluorobenzyl)amino)-3-fluoro-1-(2-methoxyethyl)-1H-pyrazolo[4,3-d]pyrimidin-7(6H)-one] | 2 µg/mL (≈ 5.66 µM) | 4 µg/mL (≈ 11.3 µM) | > 64 µg/mL | >64 µg/mL | 4 µg/mL (≈ 11.3 µM) | 8 µg/mL (≈ 22.6 µM) | 4 µg/mL (≈ 11.3 µM) |  | 4 µg/mL (≈ 11.3 µM) |  |  |  |  |  |  |  |  |
| CC(=O)N1CCN(CCn2ncc3nc(NCc4ccc(Cl)c(Cl)c4)[nH]c(=O)c32)CC1.Cl [Compound 64, 1-(2-(4-Acetylpiperazin-1-yl)ethyl)-5-((3,4-dichlorobenzyl)amino)-1H-pyrazolo[4,3-d]pyrimidin-7(6H)-one hydrochloride] | 2 µg/mL | 8 µg/mL | > 64 µg/mL | 64 µg/mL | 2 µg/mL | 4 µg/mL | 4 µg/mL | 8 µg/mL |  |  |  |  |  |  |  |  |  |
| Cl.O=C(c1nnc[nH]1)N1CCC(n2ncc3nc(NCc4ccc(Cl)c(Cl)c4)[nH]c(=O)c32)CC1 [Compound 265, 1-(1-(4H-1,2,4-triazole-3-carbonyl)piperidin-4-yl)-5-((3,4-dichlorobenzyl)amino)-1H-pyrazolo[4,3-d]pyrimidin-7(6H)-one hydrochloride] | 4 µg/mL | 8 µg/mL | > 64 µg/mL | >64 µg/mL | 4 µg/mL | 4 µg/mL | 4 µg/mL | 8 µg/mL |  |  |  |  |  |  |  |  |  |
| Cl.Cl.O=c1[nH]c(NCc2ccc(Cl)c(Cl)c2)nc2cnn(C3CCN(CC4CCNCC4)CC3)c12 [Compound 247, 5-((3,4-dichlorobenzyl)amino)-1-(1-(piperidin-4-ylmethyl)piperidin-4-yl)-1H-pyrazolo[4,3-d]pyrimidin-7(6H)-one dihydrochloride] | 8 µg/mL | 32 µg/mL | > 64 µg/mL | 64 µg/mL | 32 µg/mL | 32 µg/mL | 8 µg/mL | 64 µg/mL |  |  |  |  |  |  |  |  |  |
| Cn1ncc2nc(NCc3ccc(F)c(F)c3)[nH]c(=O)c21 [Compound 7, 5-((3,4-Difluorobenzyl)amino)-1-methyl-1H-pyrazolo[4,3-d]pyrimidin-7(6H)-one] | 8 µg/mL (≈ 27.5 µM) | 16 µg/mL (≈ 54.9 µM) | > 64 µg/mL | >64 µg/mL | 8 µg/mL (≈ 27.5 µM) | 16 µg/mL (≈ 54.9 µM) | 8 µg/mL (≈ 27.5 µM) | 16 µg/mL (≈ 54.9 µM) |  |  |  |  |  |  |  |  |  |
| Cc1ccc(CNc2nc3cnn(C)c3c(=O)[nH]2)cc1Cl [Compound 31, 5-((3-Chloro-4-methylbenzyl)amino)-1-methyl-1H-pyrazolo[4,3-d]pyrimidin-7(6H)-one] | 2 µg/mL (≈ 6.58 µM) | 4 µg/mL (≈ 13.2 µM) | > 64 µg/mL | 16 µg/mL | 4 µg/mL (≈ 13.2 µM) | 8 µg/mL (≈ 26.3 µM) | 8 µg/mL (≈ 26.3 µM) | 4 µg/mL (≈ 13.2 µM) |  |  |  |  |  |  |  |  |  |
| O=C(NCCn1ncc2nc(NCc3ccc(Cl)c(Cl)c3)[nH]c(=O)c21)c1cc(Cl)nnc1O [Compound 83, 6-chloro-N-(2-(5-((3,4-dichlorobenzyl)amino)-7-oxo-6,7-dihydro-1H-pyrazolo[4,3-d]pyrimidin-1-yl)ethyl)-3-hydroxypyridazine-4-carboxamide] | 64 µg/mL (≈ 126 µM) | > 64 µg/mL | > 64 µg/mL | >64 µg/mL | > 64 µg/mL | > 64 µg/mL | 8 µg/mL (≈ 15.7 µM) | > 64 µg/mL |  |  |  |  |  |  |  |  |  |
| O=C(O)CCn1cc2nc(NCc3ccc(Cl)c(Cl)c3)[nH]c(=O)c2n1 [Compound 230, 3-(5-((3,4-Dichlorobenzyl)amino)-7-oxo-6,7-dihydro-2H-pyrazolo[4,3-d]pyrimidin-2-yl)propanoic acid] | 64 µg/mL (≈ 167 µM) | > 64 µg/mL | > 64 µg/mL | 64 µg/mL | 64 µg/mL (≈ 167 µM) | 64 µg/mL (≈ 167 µM) | 32 µg/mL (≈ 83.7 µM) | 64 µg/mL (≈ 167 µM) |  |  |  |  |  |  |  |  |  |
| O=c1[nH]c(NCc2ccc(Cl)c(Cl)c2)nc2cnn(CC(CO)N3CCOCC3)c12 (stereo not shown) [Compound 288, 5-[(3,4-dichlorophenyl)methylamino]-1-(3-hydroxy-2-morpholino-propyl)-6H-pyrazolo[4,3-d]pyrimidin-7-one] | 8 µg/mL (≈ 17.6 µM) | 32 µg/mL (≈ 70.6 µM) | > 64 µg/mL | >64 µg/mL | 16 µg/mL (≈ 35.3 µM) | 32 µg/mL (≈ 70.6 µM) | 16 µg/mL (≈ 35.3 µM) | 32 µg/mL (≈ 70.6 µM) |  |  |  |  |  |  |  |  |  |
| COCCN1CC(Cn2ncc3nc(NCc4ccc(Cl)c(Cl)c4)[nH]c(=O)c32)CC1=O (stereo not shown) [Compound 176, 5-((3,4-dichlorobenzyl)amino)-1-((1-(2-methoxyethyl)-5-oxopyrrolidin-3-yl)methyl)-1H-pyrazolo[4,3-d]pyrimidin-7(6H)-one] | 4 µg/mL (≈ 8.6 µM) | 16 µg/mL (≈ 34.4 µM) | > 64 µg/mL | >64 µg/mL | 4 µg/mL (≈ 8.6 µM) | 8 µg/mL (≈ 17.2 µM) | 4 µg/mL (≈ 8.6 µM) | 16 µg/mL (≈ 34.4 µM) |  |  |  |  |  |  |  |  |  |
| CC(=O)N1CCC(Cn2ncc3nc(NCc4ccc(Cl)c(Cl)c4)[nH]c(=O)c32)C1 (stereo not shown) [Compound 281, 1-((1-Acetylpyrrolidin-3-yl)methyl)-5-((3,4-dichlorobenzyl)amino)-1H-pyrazolo[4,3-d]pyrimidin-7(6H)-one] | 2 µg/mL (≈ 4.59 µM) | 8 µg/mL (≈ 18.4 µM) | > 64 µg/mL | >64 µg/mL | 2 µg/mL (≈ 4.59 µM) | 4 µg/mL (≈ 9.19 µM) | 2 µg/mL (≈ 4.59 µM) |  |  | 4/8 |  |  |  |  |  |  |  |
| O=c1[nH]c(NCc2ccc(Cl)c(Cl)c2)nc2cnn(C3CCNC3)c12 (stereo not shown) [Compound 216, 5-((3,4-dichlorobenzyl)amino)-1-(pyrrolidin-3-yl)-1H-pyrazolo[4,3-d]pyrimidin-7(6H)-one TFA salt] |  |  |  | >64 µg/mL |  |  |  |  |  |  | 4 µg/mL | 16 µg/mL | > 64 µg/mL | 16 µg/mL | 16 µg/mL | 4 µg/mL | 16 µg/mL |
| CNC(=O)C(CCCn1ncc2nc(NCc3ccc(Cl)c(Cl)c3)[nH]c(=O)c21)c1ccccc1 (stereo not shown) [Compound 200, 5-(5-((3,4-dichlorobenzyl)amino)-7-oxo-6,7-dihydro-1H-pyrazolo[4,3-d]pyrimidin-1-yl)-N-methyl-2-phenylpentanamide] | 2 µg/mL (≈ 4 µM) | 8 µg/mL (≈ 16 µM) | > 64 µg/mL | >64 µg/mL | 8 µg/mL (≈ 16 µM) | 16 µg/mL (≈ 32 µM) | 16 µg/mL (≈ 32 µM) | 8 µg/mL (≈ 16 µM) |  |  |  |  |  |  |  |  |  |
